According to patent US20250145642A1, “BICYCLIC HETEROARENES AND METHODS OF THEIR USE” (Kineta, Inc., priority 2021, published 2025):

These compounds were tested against full-length human PIKFYVE (N-terminal GST-fusion) (Homo sapiens (Human), UniProt Q9Y2I7, L932S/Q1183K/Q995L/S1033A/S696N/T998S) (assay: PIKfyve biochemical assay (ADP-Glo Kinase assay, Carna Biosciences)). Conditions: ADP-Glo, full-length human GST-PIKFYVE, 10 μM to 3 nM; read-out: hPIKfyve IC50.
From the text: (§1) PIKfyve Biochemical Assay. The biochemical PIKfyve inhibition assays were run by Carna Biosciences according to proprietary methodology based on the Promega ADP-Glo™ Kinase assay. A full-length human PIKFYVE [1-2098(end) amino acids and S696N, L932S, Q995L, T998S, S1033A and Q1183K of the protein having the sequence set forth in NCBI Reference Sequence No. NP_055855.2] was expressed as N-terminal GST-fusion protein (265 kDa) using baculovirus expression system. GST-PIKFYVE was purified by using glutathione sepharose chromatography and used in an ADP-Glo™ Kinase assay (Promega). Reactions were set up by adding the test compound solution, substrate solution, ATP solution and kinase solution, each at 4× final concentrations. Reactions were prepared with assay buffer (50 mM MOPS, 1 mM DTT, pH7.2), mixed, and incubated in black 384 well polystyrene plates for 1 hour at room temperature. ADP-Glo™ reagent was then added for 40 minutes, followed by kinase detection reagent for an additional 40 minutes. The kinase activity was evaluated by detecting relative light units on a luminescence plate reader. Samples were run in duplicate from 10 μM to 3 nM. […] IC50 values were calculated from concentration vs % inhibition curves by fitting to a four-parameter logistic curve.
as §1, with “The” for “PIKfyve Biochemical Assay. The”, “accession number” for “the protein having the sequence set forth in NCBI Reference Sequence No.”, “curve. […]” for “curve.”

Chain of full-length human PIKFYVE (N-terminal GST-fusion) (Q9Y2I7 whole entry S696N/L932S/Q995L/T998S/S1033A/Q1183K, the tested form may be a part): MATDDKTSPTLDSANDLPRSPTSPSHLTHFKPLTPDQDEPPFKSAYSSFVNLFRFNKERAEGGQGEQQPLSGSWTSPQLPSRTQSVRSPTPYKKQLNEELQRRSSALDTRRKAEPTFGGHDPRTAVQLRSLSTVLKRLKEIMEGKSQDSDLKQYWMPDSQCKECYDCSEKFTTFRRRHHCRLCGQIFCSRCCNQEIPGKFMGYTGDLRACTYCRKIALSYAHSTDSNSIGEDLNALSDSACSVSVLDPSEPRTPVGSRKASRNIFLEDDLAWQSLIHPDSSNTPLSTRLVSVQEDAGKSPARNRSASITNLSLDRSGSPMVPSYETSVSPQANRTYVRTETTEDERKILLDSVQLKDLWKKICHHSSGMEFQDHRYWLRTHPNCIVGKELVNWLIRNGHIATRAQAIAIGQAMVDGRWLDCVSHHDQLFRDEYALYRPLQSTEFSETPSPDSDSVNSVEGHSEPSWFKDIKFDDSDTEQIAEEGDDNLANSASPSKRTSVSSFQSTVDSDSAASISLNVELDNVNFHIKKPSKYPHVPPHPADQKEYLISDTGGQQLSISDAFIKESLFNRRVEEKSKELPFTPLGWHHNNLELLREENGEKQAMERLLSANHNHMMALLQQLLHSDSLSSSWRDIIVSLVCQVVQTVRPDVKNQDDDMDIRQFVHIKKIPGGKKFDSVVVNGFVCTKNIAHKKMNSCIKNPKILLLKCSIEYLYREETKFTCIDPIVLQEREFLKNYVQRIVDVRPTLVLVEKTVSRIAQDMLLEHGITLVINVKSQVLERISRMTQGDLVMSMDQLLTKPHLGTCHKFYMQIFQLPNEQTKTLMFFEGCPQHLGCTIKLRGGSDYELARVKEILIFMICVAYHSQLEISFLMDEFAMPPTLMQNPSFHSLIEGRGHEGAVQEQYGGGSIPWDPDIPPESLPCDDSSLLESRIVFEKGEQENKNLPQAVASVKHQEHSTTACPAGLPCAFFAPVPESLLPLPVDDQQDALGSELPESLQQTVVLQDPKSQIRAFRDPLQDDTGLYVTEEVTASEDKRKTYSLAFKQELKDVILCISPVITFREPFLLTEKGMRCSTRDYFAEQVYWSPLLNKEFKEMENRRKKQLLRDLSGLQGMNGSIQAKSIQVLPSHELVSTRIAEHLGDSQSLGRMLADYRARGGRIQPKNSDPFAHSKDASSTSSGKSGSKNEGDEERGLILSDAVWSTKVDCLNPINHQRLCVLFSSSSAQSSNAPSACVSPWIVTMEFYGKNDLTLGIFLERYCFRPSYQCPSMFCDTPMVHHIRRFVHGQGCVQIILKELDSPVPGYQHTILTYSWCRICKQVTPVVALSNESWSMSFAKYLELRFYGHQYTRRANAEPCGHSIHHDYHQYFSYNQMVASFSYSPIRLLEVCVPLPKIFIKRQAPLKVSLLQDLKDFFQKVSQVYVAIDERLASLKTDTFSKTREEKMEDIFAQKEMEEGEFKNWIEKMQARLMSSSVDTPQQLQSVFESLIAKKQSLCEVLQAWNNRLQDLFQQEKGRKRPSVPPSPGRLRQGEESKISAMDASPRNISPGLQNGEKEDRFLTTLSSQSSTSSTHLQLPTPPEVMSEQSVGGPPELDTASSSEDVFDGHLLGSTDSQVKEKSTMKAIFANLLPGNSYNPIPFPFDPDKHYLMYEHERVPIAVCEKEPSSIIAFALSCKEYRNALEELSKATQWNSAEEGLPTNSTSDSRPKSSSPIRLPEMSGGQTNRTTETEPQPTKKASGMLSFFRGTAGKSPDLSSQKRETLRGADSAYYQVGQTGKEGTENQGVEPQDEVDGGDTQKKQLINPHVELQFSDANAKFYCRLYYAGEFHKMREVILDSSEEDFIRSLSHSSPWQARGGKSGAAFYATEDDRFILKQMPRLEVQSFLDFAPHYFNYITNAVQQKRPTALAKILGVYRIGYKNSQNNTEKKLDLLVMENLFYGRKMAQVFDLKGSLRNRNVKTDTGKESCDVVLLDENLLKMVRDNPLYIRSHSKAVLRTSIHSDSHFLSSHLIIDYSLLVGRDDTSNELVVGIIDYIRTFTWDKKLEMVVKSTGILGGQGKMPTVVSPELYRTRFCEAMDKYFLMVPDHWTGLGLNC

Compound | IC50 [nM]
c1ccc(N2CCc3c(-c4ccnnc4)nc(N4CCOCC4)nc32)cc1 [Compound 99, 4-(7-phenyl-4-(pyridazin-4-yl)-6,7-dihydro-5H-pyrrolo[2,3-d]pyrimidin-2-yl)morpholine] | 10 to 100
c1ccc(N2CCc3c(OCCc4ccccn4)nc(N4CCOCC4)nc32)cc1 [Compound 44, 4-(7-phenyl-4-(2-(pyridin-2-yl)ethoxy)-6,7-dihydro-5H-pyrrolo[2,3-d]pyrimidin-2-yl)morpholine] | 10 to 100
O=C(C1CC1)N1CCC(c2nc(N3CCOCC3)nc3c2CCN3c2ccccc2)C1 (stereo not shown) [Compound 118, cyclopropyl(3-(2-morpholino-7-phenyl-6,7-dihydro-5H-pyrrolo[2,3-d]pyrimidin-4-yl)pyrrolidin-1-yl)methanone] | < 10
c1ccc(N2CCc3c(Oc4ccncc4)nc(N4CCOCC4)nc32)cc1 [Compound 54, 4-(7-phenyl-4-(pyridin-4-yloxy)-6,7-dihydro-5H-pyrrolo[2,3-d]pyrimidin-2-yl)morpholine] | 10 to 100
c1cc(-c2nc(N3CCOCC3)nc3c(-c4ccncn4)c[nH]c23)ccn1 [Compound 137, 4-(4-(pyridin-4-yl)-7-(pyrimidin-4-yl)-6H-pyrrolo[3,2-d]pyrimidin-2-yl)morpholine] | 10 to 100
CN1CCC(c2nc(N3CCOCC3)nc3c2ncn3-c2ccccc2)C1 (stereo not shown) [Compound 126, 4-(6-(1-methylpyrrolidin-3-yl)-9-phenyl-9H-purin-2-yl)morpholine] | 1000 to 10000
c1ccc(N2CCc3c(Oc4ccccn4)nc(N4CCOCC4)nc32)cc1 [Compound 49, 4-(7-phenyl-4-(pyridin-2-yloxy)-6,7-dihydro-5H-pyrrolo[2,3-d]pyrimidin-2-yl)morpholine] | 10 to 100
c1ccc(N2CCc3cnc(N4CCOCC4)nc32)cc1 [Compound 2, 4-(7-phenyl-6,7-dihydro-5H-pyrrolo[2,3-d]pyrimidin-2-yl)morpholine] | 100 to 1000
c1ccc(N2CCc3c(-c4ccccn4)nc(N4CCOCC4)nc32)cc1 [Compound 90, 4-(7-phenyl-4-(pyridin-2-yl)-6,7-dihydro-5H-pyrrolo[2,3-d]pyrimidin-2-yl)morpholine] | 100 to 1000
Fc1cccc(N2CCc3c(Oc4cccnc4)nc(N4CCOCC4)nc32)c1 [Compound 56, 4-(7-(3-fluorophenyl)-4-(pyridin-3-yloxy)-6,7-dihydro-5H-pyrrolo[2,3-d]pyrimidin-2-yl)morpholine] | 10 to 100
COc1cccc(N2CCc3c(OCC4CCCN(C)C4)nc(N4CCOCC4)nc32)c1 (stereo not shown) [Compound 13, 4-(7-(3-methoxyphenyl)-4-((1-methylpiperidin-3-yl)methoxy)-6,7-dihydro-5H-pyrrolo[2,3-d]pyrimidin-2-yl)morpholine] | 10 to 100
c1ccc(-n2cc(N3CCc4c(Oc5cccnc5)nc(N5CCOCC5)nc43)cn2)cc1 [Compound 71, 4-(7-(1-phenyl-1H-pyrazol-4-yl)-4-(pyridin-3-yloxy)-6,7-dihydro-5H-pyrrolo[2,3-d]pyrimidin-2-yl)morpholine] | 10 to 100
CN1CCCC(COc2nc(N3CCOCC3)nc3c2CCN3c2cncnc2)C1 (stereo not shown) [Compound 16, 4-(4-((1-methylpiperidin-3-yl)methoxy)-7-(pyrimidin-5-yl)-6,7-dihydro-5H-pyrrolo[2,3-d]pyrimidin-2-yl)morpholine] | 1000 to 10000
Fc1cccc(N2CCc3c(-c4ccncc4)nc(N4CCOCC4)nc32)c1 [Compound 104, 4-(7-(3-fluorophenyl)-4-(pyridin-4-yl)-6,7-dihydro-5H-pyrroolo[2,3-d]pyrimidin-2-yl)morpholine] | < 10
CC(C)(C)OC(=O)N1CC(COc2nc(N3CCOCC3)nc3c2CCN3c2cccnc2)C1 [Compound 37, tert-butyl 3-(((2-morpholino-7-(pyridin-3-yl)-6,7-dihydro-5H-pyrrolo[2,3-d]pyrimidin-4-yl)oxy)methyl)azetidine-1-carboxylate] | 100 to 1000
c1ccc(N2CCc3c(-c4cncnc4)nc(N4CCOCC4)nc32)cc1 [Compound 100, 4-(7-phenyl-4-(pyrimidin-5-yl)-6,7-dihydro-5H-pyrrolo[2,3-d]pyrimidin-2-yl)morpholine] | 10 to 100

Compound | IC50 [nM]
CC(=O)N1CCC(c2nc(N3CCOCC3)nc3c2CCN3c2ccccc2)C1 (stereo not shown) [Compound 119, 1-(3-(2-morpholino-7-phenyl-6,7-dihydro-5H-pyrrolo[2,3-d]pyrimidin-4-yl)pyrrolidin-1-yl)ethanone] | 10 to 100
CN1CCC(c2nc(N3CCOCC3)nc3c2CCN3c2ccccc2)CC1 [Compound 112, 4-(4-(1-methylpiperidin-4-yl)-7-phenyl-6,7-dihydro-5H-pyrrolo[2,3-d]pyrimidin-2-yl)morpholine] | 10 to 100
CN1CCC(OCc2nc(N3CCOCC3)nc3c2CCN3c2cccnc2)C1 (stereo not shown) [Compound 66, 4-(4-((1-methylpyrrolidin-3-yloxy)methyl)-7-(pyridin-3-yl)-6,7-dihydro-5H-pyrrolo[2,3-d]pyrimidin-2-yl)morpholine] | 1000 to 10000
CN1CCCC(COc2nc(N3CCOCC3)nc3c2CCN3c2cnn(C)c2)C1 (stereo not shown) [Compound 18] | 1000 to 10000
c1ccc(-c2nccc(N3CCc4c(Oc5cccnc5)nc(N5CCOCC5)nc43)n2)cc1 [Compound 74, 4-(7-(2-phenylpyrimidin-4-yl)-4-(pyridin-3-yloxy)-6,7-dihydro-5H-pyrrolo[2,3-d]pyrimidin-2-yl)morpholine] | 1000 to 10000
c1ccc(N2CCc3c(OCC4COC4)nc(N4CCOCC4)nc32)cc1 [Compound 20, 4-(4-(oxetan-3-ylmethoxy)-7-phenyl-6,7-dihydro-5H-pyrrolo[2,3-d]pyrimidin-2-yl)morpholine] | 10 to 100
Cc1cccc(-c2ccn(-c3nc(N4CCOCC4)nc4c3CCN4c3cccnc3)n2)c1 [Compound 83, 4-(7-(pyridin-3-yl)-4-(3-(m-tolyl)-1H-pyrazol-1-yl)-6,7-dihydro-6H-pyrrolo[2,3-d]pyrimidin-2-yl)morpholine] | 10 to 100
c1cc(-c2nc(N3CCOCC3)nc3c(-c4nccc(C5CC5)n4)c[nH]c23)ccn1 [Compound 138, 4-(7-(4-cyclopropylpyrimidin-2-yl)-4-(pyridin-4-yl)-5H-pyrrolo[3,2-d]pyrimidin-2-yl)morpholine] | 100 to 1000
4-(4-((oxetan-3-yloxy)methyl)-7-(pyridin-3-yl)-6,7-dihydro-5H-pyrrolo[2,3-d]pyrimidin-2-yl)morpholine [Compound 65] | 1000 to 10000
CC(C)(C)OC(=O)N1CCC(c2nc(N3CCOCC3)nc3c2CCN3c2cccnc2)CC1 [Compound 107, tert-butyl 4-(2-morpholino-7-(pyridin-3-yl)-6,7-dihydro-5H-pyrrolo[2,3-d]pyrimidin-4-yl)piperidine-1-carboxylate] | 100 to 1000
c1ccc(-n2ncc(N3CCc4c(Oc5cccnc5)nc(N5CCOCC5)nc43)n2)cc1 [Compound 68, 4-(7-(2-phenyl-2H-1,2,3-triazol-4-yl)-4-(pyridin-3-yloxy)-6,7-dihydro-5H-pyrrolo[2,3-d]pyrimidin-2-yl)morpholine] | 1000 to 10000
CN1CC(COc2nc(N3CCOCC3)nc3c2CCN3c2cccnc2)C1 [Compound 39, 4-(4-((1-methylazetidin-3-yl)methoxy)-7-(pyridin-3-yl)-6,7-dihydro-5H-pyrrolo[2,3-d]pyrimidin-2-yl)morpholine] | 1000 to 10000
CN1CCN(c2nc(N3CCOCC3)nc3c2CCN3c2cccnc2)CC1 [Compound 81, 4-(4-(4-methylpiperazin-1-yl)-7-(pyridin-3-yl)-6,7-dihydro-5H-pyrrolo[2,3-d]pyrimidin-2-yl)morpholine] | 1000 to 10000
c1ccc(N2CCc3c(OCc4cccnc4)nc(N4CCOCC4)nc32)cc1 [Compound 25, 4-(7-phenyl-4-(pyridin-3-ylmethoxy)-6,7-dihydro-5H-pyrrolo[2,3-d]pyrimidin-2-yl)morpholine] | 10 to 100
N#Cc1cccc(N2CCc3c(OCc4cccnc4)nc(N4CCOCC4)nc32)c1 [Compound 4, 3-(2-morpholino-4-(pyridin-3-ylmethoxy)-5H-pyrrolo[2,3-d]pyrimidin-7(6H)-yl)benzonitrile] | 100 to 1000
c1ccc(-c2nccc(-c3nc(N4CCOCC4)nc4c3CCN4c3ccncc3)n2)cc1 [Compound 125, 4-(4-(2-phenylpyrimidin-4-yl)-7-(pyridin-4-yl)-6,7-dihydro-5H-pyrrolo[2,3-d]pyrimidin-2-yl)morpholine] | 10 to 100

Same assay, conditions: values plotted in FIG. 7; read-out: PIKFYVE Biochemistry (IC50)

IC50 [nM] | Compound
> 10000 | c1ccc(-c2nc(-c3cc(N4CCOCC4)nc(OCc4ccncc4)n3)no2)cc1
> 10000 | O=c1c(CCOc2cccnc2)cc2ncncc2n1-c1ccccc1
